# Source: patent US20260174875A1 (Novo Nordisk A/S, priority 2023, published 2026)
# Read-outs that look alike come from different tables or passages of the source.
# Columns and labels:
# [1] = target: T1, human GLP-1 receptor (hGLP-1R) (Homo sapiens, UniProt P43220); assay: GLP-1 receptor assay, method B (CRE-luciferase reporter, BHK cells, 384-well); format: cell-based; details: hGLP-1R Potency, 1% HSA, EC50, methods B, in the presence of 1% HSA
# T1 construct: expressed in transfected cells
# Description: (§1) To assess how the activation of the receptors is potentially influenced by the presence of human serum albumin (HSA), the in vitro assays were performed in the absence of HSA and presence of 1% (w/v) HSA.
# Cells at approximately 80-90% confluence were washed once in PBS (Gibco 14190-094) and loosened from the cell flasks with Versene (Gibco, 15040-033). […] Cells were aliquoted and stored at −180° C. until use.
# (§2) The assay buffer consisted of DMEM without phenol red (Gibco, 11880-028) supplemented with 1× GlutaMAX (Gibco, 35050-038), 10 mM HEPES (Gibco, 15630-056), 1% (w/v) ovalbumin (Sigma, A5503) and 0.1% (v/v) Pluronic F-68 (Gibco, 24040-032) either with HSA or without HSA (Sigma, A9511).
# Serial dilutions were transferred to a 384-well assay plate (PerkinElmer/Revvity, 6007688) and mixed with an equal volume (10 μL) of assay buffer without or with 3% (w/v) HSA (Sigma, A-9511). Frozen stocks of hGLP-1R BHK Cre-Luc cells were thawed in a 37° C. water bath, washed once in PBS (Gibco 14190-094), diluted to 1.5×10^5 (1.5E+5) cells/mL in assay buffer (without HSA) and added (10 μL) to each well of the 384-well assay plate. After a short centrifugation, the assay plates were incubated for 3 hours at 37° C. in 5% CO2 and let to equilibrated at room temperature for 10 minutes before the addition of 30 μL steadylite Plus™ PerkinElmer/Revvity, 6066759) per well. Plates were sealed and incubated at room temperature with gentle shaking for 30 minutes while protected from light. Luminescence was detected on a luminescence plate reader e.g. a Synergy 2 (BioTek).
# [2] = target: T2, human GIP receptor (hGIPR) (Homo sapiens, UniProt P48546); assay: GIP receptor assay, method B (CRE-luciferase reporter, BHK cells, 384-well); format: cell-based
# T2 construct: expressed in transfected cells
# T2 sequence (P48546 22-466): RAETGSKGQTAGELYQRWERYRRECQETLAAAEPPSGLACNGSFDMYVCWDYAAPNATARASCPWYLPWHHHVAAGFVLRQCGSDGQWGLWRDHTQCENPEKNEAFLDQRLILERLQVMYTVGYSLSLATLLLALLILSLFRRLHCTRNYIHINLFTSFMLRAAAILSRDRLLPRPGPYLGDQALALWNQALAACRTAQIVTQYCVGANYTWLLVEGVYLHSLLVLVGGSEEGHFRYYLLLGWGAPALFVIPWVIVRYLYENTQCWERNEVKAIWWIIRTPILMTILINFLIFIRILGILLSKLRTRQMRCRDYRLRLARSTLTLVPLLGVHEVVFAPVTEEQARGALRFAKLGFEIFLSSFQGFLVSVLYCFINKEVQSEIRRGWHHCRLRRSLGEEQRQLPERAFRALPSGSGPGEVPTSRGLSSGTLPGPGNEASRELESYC
# Description: as §1
# Activation of the human GIP receptor leads to increased intra-cellular concentrations of cyclic AMP (cAMP) and the consequent transcription activation from promoters containing multiple copies of the cAMP response element (CRE). It is thus possible to measure GIP receptor activity using a CRE-luciferase reporter gene introduced into Baby Hamster Kidney (BHK) cells co-expressing the human GIP receptor.
# Cells at about 80-90% confluency were washed once with PBS (Gibco 14190-094) and detached from the cell flasks with Versene (Gibco, 15040-066). After centrifugation, the cells were counted, resuspended and diluted to approximately 1.5-3.0×10^6 (1.5E+6 to 3.0E+6) cells/mL in Recovery Cell Culture Freezing Medium (Gibco, 12648-010) and stored at −180° C. in suitable aliquots until use.
# as §2
# Serial dilutions were transferred to a 384-well assay plate (PerkinElmer/Revvity, 6007688) and mixed with an equal volume (10 μL) of assay buffer without or with 3% HSA (Sigma, A-9511). Frozen stocks of hGIPR BHK Cre-Luc cells were thawed in a 37° C. water bath, washed once in PBS (Gibco 14190-094), diluted to 1.5×10^5 (1.5E+5) cells/mL in assay buffer (without HSA) and added (10 μL) to each well of the 384-well assay plate. After a short centrifugation, the assay plates were incubated for 3 hours at 37° C. in 5% CO2 and let to equilibrated at room temperature for 10 minutes before the addition of 30 μL steadylite Plus™ (PerkinElmer/Revvity, 6066759) per well. Plates were sealed and incubated at room temperature with gentle shaking for 30 minutes while protected from light. Luminescence was detected on a luminescence plate reader e.g. a Synergy 2 (BioTek).
# [3] = target: T3, human amylin receptor (hAMYR3) (Homo sapiens, UniProt O60896+P30988); assay: Amylin receptor assay, method B (CRE-luciferase reporter, BHK cells); format: cell-based
# T3 construct: host or cells: BHK cells (Hollex-1 line expressing hCTR(a) and CRE-Luc), further transfected with human RAMP3
# In short: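 BHK cells with CRE-luciferase, co-expressing hAMYR3 and transfected with human RAMP3, seeded overnight, then exposed 3 h at 37 °C to compound. Buffer: phenol red-free DMEM, 10 mM HEPES, 1% ovalbumin, with 0% or 1% (w/v) HSA. Luminescence read after 30 min with steadylite Plus.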
# [4] = Chemical stability assessment in formulation (UPLC-UV-MS purity loss at 37° C.); format: physicochemical; details: 8 mM phosphate buffer pH 7.4, 1 mg/mL, 2 weeks
# In short: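 Degradation tracked by UPLC-UV-MS (formic acid/acetonitrile gradient) on samples drawn over 2 weeks at 37° C. Solutions were made at a 1 mg/mL target in 8 mM phosphate, pH 7.4, kept in sealed vials and frozen after sampling.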
# T3 sequence (P30988 25-474): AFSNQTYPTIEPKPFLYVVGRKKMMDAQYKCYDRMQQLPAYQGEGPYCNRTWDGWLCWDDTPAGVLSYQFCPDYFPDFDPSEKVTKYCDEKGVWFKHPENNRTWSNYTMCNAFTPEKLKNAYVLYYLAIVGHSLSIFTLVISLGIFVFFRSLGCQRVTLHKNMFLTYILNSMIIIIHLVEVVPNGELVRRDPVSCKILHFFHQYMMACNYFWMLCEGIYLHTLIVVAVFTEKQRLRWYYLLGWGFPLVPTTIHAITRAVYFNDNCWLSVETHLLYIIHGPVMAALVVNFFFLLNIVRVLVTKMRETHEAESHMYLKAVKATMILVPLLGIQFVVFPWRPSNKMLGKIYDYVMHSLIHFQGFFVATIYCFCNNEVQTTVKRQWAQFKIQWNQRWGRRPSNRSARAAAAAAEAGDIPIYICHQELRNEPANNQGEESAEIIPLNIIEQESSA
# T3 sequence (O60896 24-148): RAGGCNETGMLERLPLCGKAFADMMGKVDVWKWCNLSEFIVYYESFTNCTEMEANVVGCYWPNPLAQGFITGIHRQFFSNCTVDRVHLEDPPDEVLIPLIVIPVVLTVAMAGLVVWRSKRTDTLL
# T1 sequence (P43220 24-463): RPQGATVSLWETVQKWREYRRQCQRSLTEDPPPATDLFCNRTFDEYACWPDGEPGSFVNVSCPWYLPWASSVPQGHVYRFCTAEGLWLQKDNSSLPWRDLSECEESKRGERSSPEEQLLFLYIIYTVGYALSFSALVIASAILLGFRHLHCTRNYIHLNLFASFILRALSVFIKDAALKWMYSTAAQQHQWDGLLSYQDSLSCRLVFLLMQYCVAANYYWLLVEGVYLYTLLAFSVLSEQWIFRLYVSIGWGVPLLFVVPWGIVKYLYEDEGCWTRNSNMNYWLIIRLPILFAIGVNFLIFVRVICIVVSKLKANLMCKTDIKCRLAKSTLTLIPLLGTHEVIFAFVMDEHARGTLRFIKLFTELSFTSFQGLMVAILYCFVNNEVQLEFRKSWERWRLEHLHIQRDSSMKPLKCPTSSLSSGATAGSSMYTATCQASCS
smiles,measurement,setting,value
CC[C@H](C)[C@H](NC(=O)[C@H](CCC(=O)O)NC(=O)[C@H](CCC(=O)O)NC(=O)[C@H](CC(C)C)NC(=O)[C@H](CC(C)C)NC(=O)[C@H](CCCCNC(=O)COCCOCCNC(=O)COCCOCCNC(=O)CC[C@H](NC(=O)CCCCCCCCCCCCCCCCCCC(=O)O)C(=O)O)NC(=O)[C@H](CO)NC(=O)[C@H](Cc1ccc(O)cc1)NC(=O)[C@H](CC(=O)O)NC(=O)[C@H](CO)NC(=O)[C@@H](NC(=O)[C@H](Cc1ccccc1)NC(=O)[C@@H](NC(=O)CNC(=O)[C@H](CCC(=O)O)NC(=O)C(C)(C)NC(=O)[C@@H](N)Cc1ccc(O)cc1)[C@@H](C)O)[C@@H](C)O)C(=O)N[C@@H](C)C(=O)N[C@@H](C)C(=O)N[C@@H](CCCNC(=N)N)C(=O)N[C@@H](CCC(=O)O)C(=O)N[C@@H](Cc1ccccc1)C(=O)N[C@H](C(=O)N[C@@H](CCC(=O)O)C(=O)N[C@@H](Cc1c[nH]c2ccccc12)C(=O)N[C@@H](CC(C)C)C(=O)N[C@@H](CC(C)C)C(=O)N[C@@H](C)C(=O)NCC(=O)NCC(=O)N1CCC[C@H]1C(=O)N[C@@H](CO)C(=O)N[C@@H](CO)C(=O)NCC(=O)N[C@@H](C)C(=O)NCC(=O)N[C@@H](C)C(=O)N[C@@H](CO)C(=O)N[C@@H](CCC(=O)O)C(=O)N[C@@H](CC(C)C)C(=O)N[C@@H](CO)C(=O)N[C@H](C(=O)N[C@@H](C)C(=O)N[C@@H](CCC(N)=O)C(=O)N[C@@H](CC(C)C)C(=O)NCC(=O)N[C@@H](CCCNC(=N)N)C(=O)N[C@@H](CC(C)C)C(=O)N[C@@H](CO)C(=O)N[C@@H](C)C(=O)N[C@@H](CCC(=O)O)C(=O)N[C@@H](CC(C)C)C(=O)N[C@@H](Cc1c[nH]cn1)C(=O)N[C@@H](CCC(N)=O)C(=O)N[C@@H](CC(C)C)C(=O)N[C@@H](C)C(=O)N[C@H](C(=O)N[C@@H](CC(C)C)C(=O)N1CCC[C@H]1C(=O)N[C@@H](CCCNC(=N)N)C(=O)N[C@H](C(=O)N[C@@H](CCC(=O)O)C(=O)N[C@H](C(=O)NCC(=O)N[C@@H](CO)C(=O)NCC(=O)N[C@@H](CO)C(=O)N1CCC[C@H]1C(N)=O)[C@@H](C)O)[C@@H](C)O)[C@@H](C)O)[C@@H](C)O)[C@@H](C)CC [Compound 183],EC50,[1],0.744 nM
same,EC50,"[2]; hGIPR Potency, 1% HSA, EC50, methods B, in the presence of 1% HSA",0.0714 nM
same,EC50,"[2]; method B, absence of HSA, read-out: hGIPR Potency, no HSA, EC50",0.002 nM
same,EC50,"[3]; hAMYR3 Potency, 1% HSA, EC50, methods B, in the presence of 1% HSA",0.108 nM
same,EC50,"[3]; method B, absence of HSA, read-out: hAMYR3 Potency, no HSA, EC50",0.0062 nM
same,Purity loss per week at 37° C.,[4],1.3%
